Results reported in patent publication US20240246964A1 (Arbutus Biopharma Corporation, priority 2021, published 2024).
pEC50, pIC50: −log10 of the molar value.

Tests used:
[1] = molecular target: PD-L1 His protein / PD-1 Fc protein (Homo sapiens (Human), UniProt Q9NZQ7); experiment: HTRF Assay (PD-1/PD-L1 interaction); type: binding; conditions: PD-L1 His 6 nM, PD-1 Fc 6 nM
human PD-L1 = human PD-L1 (Homo sapiens (Human), UniProt Q9NZQ7); experiment: T cell activation luciferase reporter cell culture system (T Cell Activation Assay); type: cell-based; conditions: luciferase reporter assay; PD-L1 aAPC/CHO-K1 cells with PD-1 effector Jurkat T cells
human PD-L1, sequence (Q9NZQ7 19-290): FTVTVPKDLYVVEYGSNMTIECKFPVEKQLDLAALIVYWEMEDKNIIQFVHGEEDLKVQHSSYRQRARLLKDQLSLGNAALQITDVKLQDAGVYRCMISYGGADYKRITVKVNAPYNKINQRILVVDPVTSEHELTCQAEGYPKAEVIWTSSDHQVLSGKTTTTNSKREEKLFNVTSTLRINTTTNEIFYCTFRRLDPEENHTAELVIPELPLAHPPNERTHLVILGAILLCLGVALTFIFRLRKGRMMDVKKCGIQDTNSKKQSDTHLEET

PD-L1 His protein / PD-1 Fc protein, sequence (Q9NZQ7 19-238): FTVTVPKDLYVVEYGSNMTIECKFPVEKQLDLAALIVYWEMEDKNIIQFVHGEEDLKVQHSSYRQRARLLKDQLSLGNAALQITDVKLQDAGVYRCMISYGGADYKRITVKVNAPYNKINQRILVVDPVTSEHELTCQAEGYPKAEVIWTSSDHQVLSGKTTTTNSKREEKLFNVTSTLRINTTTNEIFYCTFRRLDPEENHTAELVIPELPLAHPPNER

Compound	pIC50 [1]	pEC50 (human PD-L1)
COc1cc(-c2nccc(-c3cccc(-c4ccc(CN5CC6(CNC(=O)C6)C5)c(OC)n4)c3Cl)c2Cl)ccc1CN1CC2(CNC2)C1 [Example 494, 2-((6-(3-(2-(4-((2,6-Diazaspiro[3.3]heptan-2-yl)methyl)-3-methoxyphenyl)-3-chloropyridin-4-yl)-2-chlorophenyl)-2-methoxypyridin-3-yl)methyl)-2,6-diazaspiro[3.4]-octan-7-one]	8.28	7.21
COc1cc(-c2nccc(-c3cccc(-c4ccc(CN(C)CC5CN(C(C)=O)C5)c(OC)n4)c3Cl)c2Cl)ccc1CN(C)CC1CN(C(C)=O)C1 [Example 499, 1-(3-((((6-(3-(2-(4-((((1-Acetylazetidin-3-yl)methyl)(methyl)amino)methyl)-3-methoxyphenyl)-3-chloropyridin-4-yl)-2-chlorophenyl)-2-methoxypyridin-3-yl)methyl)(methyl)amino)methyl)azetidin-1-yl)ethan-1-one]	8.68	7.05
COCC1CCN(Cc2ccc(-c3nccc(-c4cccc(-c5ccc(CNC6CCN(C(C)=O)CC6)c(OC)n5)c4Cl)c3Cl)cc2OC)CC1 [Example 509, 1-(4-(((6-(2-Chloro-3-(3-chloro-2-(3-methoxy-4-((4-(methoxymethyl)piperidin-1-yl)methyl)phenyl)pyridin-4-yl)phenyl)-2-methoxypyridin-3-yl)methyl)amino)piperidin-1-yl)ethan-1-one]	8.01	7.00
COc1cc(-c2nccc(-c3cccc(-c4ccc(CNC5CCN(C(C)=O)CC5)c(OC)n4)c3Cl)c2Cl)ccc1CNCC(F)F [Example 513, 1-(4-(((6-(2-Chloro-3-(3-chloro-2-(4-(((2,2-difluoroethyl)amino)methyl)-3-methoxyphenyl)pyridin-4-yl)phenyl)-2-methoxypyridin-3-yl)methyl)amino)piperidin-1-yl)ethan-1-one]	7.33	6.16
COc1cc(-c2nccc(-c3cccc(-c4ccc(CN[C@H]5C[C@](C)(O)C5)c(OC)n4)c3Cl)c2Cl)ccc1CN1CC2(CNC(=O)C2)C1 [Example 517, 2-(4-(3-Chloro-4-(2-chloro-3-(5-((((1r,3r)-3-hydroxy-3-methylcyclobutyl)-amino)methyl)-6-methoxypyridin-2-yl)phenyl)pyridin-2-yl)-2-methoxybenzyl)-2,6-diazaspiro[3.4]octan-7-one]	8.81	7.77
COc1cc(-c2nccc(-c3cccc(-c4ccc(CN5CC(C)(O)C5)c(OC)n4)c3Cl)c2Cl)ccc1CN1CC2(CNC(=O)C2)C1 [Example 518, 2-(4-(3-Chloro-4-(2-chloro-3-(5-((3-hydroxy-3-methylazetidin-1-yl)methyl)-6-methoxypyridin-2-yl)phenyl)pyridin-2-yl)-2-methoxybenzyl)-2,6-diazaspiro[3.4]octan-7-one]	8.62	8.01
COc1cc(-c2nccc(-c3cccc(-c4ccc(CN5CC6(C5)CN(C(C)=O)C6)c(OC)n4)c3Cl)c2Cl)ccc1CN1CC2(CNC(=O)C2)C1 [Example 519, 2-(4-(4-(3-(5-((6-Acetyl-2,6-diazaspiro[3.3]heptan-2-yl)methyl)-6-methoxypyridin-2-yl)-2-chlorophenyl)-3-chloropyridin-2-yl)-2-methoxybenzyl)-2,6-diazaspiro[3.4]octan-7-one]	8.73	7.89
COc1cc(-c2ncnc(-c3cccc(-c4ccc(CNC5CCN(C(C)=O)CC5)c(OC)n4)c3Cl)c2C)ccc1CNC1CCN(C(C)=O)CC1 [Example 522, 1-(4-(((6-(3-(6-(4-(((1-Acetylpiperidin-4-yl)amino)methyl)-3-methoxyphenyl)-5-methylpyrimidin-4-yl)-2-chlorophenyl)-2-methoxypyridin-3-yl)methyl)amino)piperidin-1-yl)ethan-1-one]	8.69	≤ 5.00
COc1cc(-c2nccc(-c3cccc(-c4ccc(CNC5CCOCC5)c(OC)n4)c3C(F)(F)F)c2Cl)ccc1CNC1CCOCC1 [Example 529, N-((6-(3-(3-Chloro-2-(3-methoxy-4-(((tetrahydro-2H-pyran-4-yl)amino)methyl)phenyl)pyridin-4-yl)-2-(trifluoromethyl)phenyl)-2-methoxypyridin-3-yl)methyl)tetrahydro-2H-pyran-4-amine]	6.96	≤ 5.00
COc1cc(-c2nccc(-c3cccc(-c4ccc(CNC5CCOCC5)c(OC)n4)c3Cl)c2Cl)ccc1CN1CC2(CCOCC2)C1 [Example 530, N-((6-(3-(2-(4-((7-Oxa-2-azaspiro[3.5]nonan-2-yl)methyl)-3-methoxyphenyl)-3-chloropyridin-4-yl)-2-chlorophenyl)-2-methoxypyridin-3-yl)methyl)tetrahydro-2H-pyran-4-amine]	8.60	7.40
COc1cc(-c2nccc(-c3cccc(-c4ccc(CN5CCC(C(C)=O)CC5)c(OC)n4)c3Cl)c2Cl)ccc1CN1CCC(C(C)=O)CC1 [Example 536, 1-(1-((6-(3-(2-(4-((4-Acetylpiperidin-1-yl)methyl)-3-methoxyphenyl)-3-chloropyridin-4-yl)-2-chlorophenyl)-2-methoxypyridin-3-yl)methyl)piperidin-4-yl)ethan-1-one]	8.17	≤ 5.00
COc1cc(-c2ncnc(-c3cccc(-c4ccc(CN5CC6(C5)CN(C(C)=O)C6)c(OC)n4)c3Cl)c2C)ccc1CN1CC2(C1)CN(C(C)=O)C2 [Example 538, 1-(6-((6-(3-(6-(4-((6-Acetyl-2,6-diazaspiro[3.3]heptan-2-yl)methyl)-3-methoxyphenyl)-5-methylpyrimidin-4-yl)-2-chlorophenyl)-2-methoxypyridin-3-yl)methyl)-2,6-diazaspiro[3.3]heptan-2-yl)ethan-1-one]	8.59	≤ 5.00
COc1cc(-c2ncnc(-c3cccc(-c4ccc(CNC5CCN(C(C)=O)CC5)c(OC)n4)c3Cl)c2Cl)ccc1CNC1CCN(C(C)=O)CC1 [Example 540, 1-(4-(((6-(3-(6-(4-(((1-Acetylpiperidin-4-yl)amino)methyl)-3-methoxyphenyl)-5-chloropyrimidin-4-yl)-2-chlorophenyl)-2-methoxypyridin-3-yl)methyl)amino)piperidin-1-yl)ethan-1-one]	9.30	7.06
COc1cc(-c2nccc(-c3cccc(-c4ccc(CN[C@@H]5CCC(=O)NC5)c(OC)n4)c3Cl)c2Cl)ccc1CNC1CCN(C(C)=O)CC1 [Example 541, (R)-5-(((6-(3-(2-(4-(((1-Acetylpiperidin-4-yl)amino)methyl)-3-methoxyphenyl)-3-chloropyridin-4-yl)-2-chlorophenyl)-2-methoxypyridin-3-yl)methyl)amino)piperidin-2-one]	9.10	7.03
COc1cc(-c2nccc(-c3cccc(-c4ccc(CN[C@H]5CCC(=O)NC5)c(OC)n4)c3Cl)c2Cl)ccc1CNC1CCN(C(C)=O)CC1 [Example 542, (S)-5-(((6-(3-(2-(4-(((1-Acetylpiperidin-4-yl)amino)methyl)-3-methoxyphenyl)-3-chloropyridin-4-yl)-2-chlorophenyl)-2-methoxypyridin-3-yl)methyl)amino)piperidin-2-one]	9.28	7.10
